# Columns and labels:
# T cells = assay: Extracellular acidification rate (ECAR) of T cells; format: cell-based, mouse
# Procedure: Further, referring to FIG. 5B, the extracellular acidification rate (ECAR) of T cells due to PI3K inhibitor treatment is shown. In this connection, to measure the extracellular acidification rate, the T cell used in FIG. 5A is used, and 1×10^5 T cells are used. Furthermore, the extracellular acidification rate refers to a measurement of glucose degradation via a change in pH resulting from lactate secretion in the medium. In this connection, as the oligomycin is injected to inhibit mitochondrial metabolism, T cells must produce ATP using only glycolysis. Thus, the extracellular acidification rate in phase 3 may mean pure glycolysis capacity. In this connection, 2DG is a molecule in which the 2-hydroxyl group of glucose is replaced with hydrogen and thus glucose may not be degraded. Furthermore, when the T cell is treated with 2DG, the extracellular acdification rate may be controlled in an upstream phase of glucose metabolism. Thus, the extracellular acidification rate in phase 4 may refer to the glucose reserve in the cell.
# GLUT1 [1] = assay: GLUT1 protein expression level of T cell; format: cell-based, mouse; details: CD3+ T cells activated 72 hours with anti-CD3 and anti-CD28 beads
# Procedure: Thus, referring to FIG. 4B, the results of mRNA expression of enzymes involved in glycolysis of T cells due to PI3K inhibitor treatment are shown. In this connection, in order to identify enzymes involved in glycolysis of T cells due to PI3K inhibitor treatment, the CD3+ T cells obtained in FIG. 2 are used. Furthermore, the obtained CD3+ T cell is activated for 72 hours using anti-CD3 and anti-CD28 beads to identify mRNA expression of enzymes involved in glycolysis. In this connection, CD3 secretes cytokine as a protein immunomodulator, and CD28 inhibits apoptosis. Only CD3-activated T cells may lead to apoptosis. Therefore, both CD3 and CD28 signals are used to increase T cell function and survival. Furthermore, referring to FIG. 5A, the result of GLUT1 protein expression level of T cell due to PI3K inhibitor treatment is shown. In this connection, T cell is treated in the same method as in FIG. 4B.
# [2] = system: lung-cancer cell line LLC2; assay: Anti-cancer effect (tumor size) in lung-cancer cell line LLC2; format: in vivo
# Procedure: First, referring to FIG. 9A, the results of the anti-cancer effect in the lung-cancer cell line LLC2 due to PI3K inhibitor treatment are shown. […] However, when the PI3K inhibitor treatment is carried out, the tumor size is reduced compared to the control. More specifically, when the PI3K inhibitor BKM 120 treatment is carried out at 35 mpk, the tumor size on the 15th day is 300 to 350 mm^3. When BKM 120 treatment is carried out at 50 mpk, the tumor size on day 15 is found to be 90 to 100 mm^3.
# [3] = system: lung-cancer cell line LLC2; assay: Cancer cell killing ability of CD3+ T cells from PI3K inhibitor-treated mice, co-culture with lung-cancer cell line, annexin V/PI flow cytometry; format: cell-based, mouse
# Procedure: First, 3 μg of a neoplasm lysate obtained from lung-cancer cell line LLC2 and 1 μg of an adjuvant LPS (lipopolysaccharide) are injected into 6 to 8 weeks old BALBc mice as an allogeneic model once a week in an intramuscular injection manner. At the same time, 50 mpk (mg/kg) of BKM-120 as a PI3K inhibitor (iPI3K) is orally administered to the mice belonging to the PI3K inhibitor-treated experimental group once a day.
# Then, lymphocytes are separated from the splenocyte of the mouse subjected to the PI3K inhibitor for a total of 3 weeks. Only CD3+ T cells are obtained using a magnetic-activated cell sorter (MACS).
# Then, the obtained CD3+ T cells are co-cultured for 24 hours together with the lung-cancer cell line from which the lysate is obtained. In this connection, a ratio between the numbers of the T cell and the lung-cancer cell line may be defined as 10 T cells: 1 lung-cancer cell line. Furthermore, the T cells and lung-cancer cell line are cultured under a normal condition, a hypoxic condition, and a low glucose condition, respectively, to identify cancer cell killing ability in poor tumor microenvironment.
# Then, the co-cultured T cells and lung-cancer cell line are subjected to flow cytometry analysis using an apoptosis kit and CD3+ antibodies.
# First, referring to (a) of FIG. 3A, the result of the cancer cell killing ability of the T cell under the normal condition due to the treatment of the PI3K inhibitor is shown. In this connection, the x-axis and y-axis indicate apoptosis using annexin V and PI (propidium iodine) as staining reagent, respectively.
# GLUT1 [4] = assay: GLUT1 expression in T cell based on type of PI3K inhibitor
# Source text: More specifically, referring to (a) of FIG. 12, the results of GLUT1 expression according to the type of PI3K inhibitor in the helper T cell are shown. In this connection, the PI3K inhibitor may include BKM 120 that may inhibit all subtypes, CAL-101 that may inhibit only p110δ, IPI-145 capable of inhibiting p110γ and P110δ, BYLT719 capable of inhibiting only p110α, and TGX-211 capable of inhibiting only p110β.
# Referring to (b) of FIG. 12, the results of GLUT1 expression according to the type of PI3K inhibitor in cytotoxic T cells are shown.
# [5] = hypoxic condition, 50 mpk BKM-120, 3 weeks, 24 hours co-culture
# [6] = low glucose condition, 50 mpk BKM-120, 3 weeks, 24 hours co-culture
# [7] = normal condition, 50 mpk BKM-120, 3 weeks, 24 hours co-culture
smiles,measurement,setting,value
"Nc1cc(C(F)(F)F)c(-c2cc(N3CCOCC3)nc(N3CCOCC3)n2)cn1 [BKM 120, buparlisib]",extracellular acidification rate versus control,"T cells; phase 1, 1×10^5 T cells",higher
same,extracellular acidification rate versus control,"T cells; phase 2, glucose injected",the difference between the extracellular acidification rates of the T cell group treated with PI3K inhibitor and the control increases
same,extracellular acidification rate versus control,"T cells; phase 3, oligomycin injected (glycolysis capacity)",higher extracellular acidification rate than that of the control
same,extracellular acidification rate versus control,"T cells; phase 4, 2-deoxy-D-glucose (2DG) injected (glucose reserve)",higher extracellular acidification rate than that in the control
same,GLUT1 expression level relative to control,GLUT1 [1],6 to 7 times
same,percentage of T cells expressing GLUT1 among all T cells,GLUT1 [1],60 to 70%
same,tumor size,"[2]; 35 mpk, 15th day",300 to 350 mm^3
same,tumor size,"[2]; 50 mpk, day 15",90 to 100 mm^3
same,"first quadrant (stained by both annexin V and PI, complete death of the cancer cell)",[3]; [5],47.4%
same,fourth quadrant (annexin V / PI),[3]; [5],7.36%
same,second quadrant (annexin V / PI),[3]; [5],26.7%
same,third quadrant (annexin V / PI),[3]; [5],18.5%
same,"first quadrant (stained by both annexin V and PI, complete death of the cancer cell)",[3]; [6],36.1%
same,fourth quadrant (annexin V / PI),[3]; [6],3.71%
same,second quadrant (annexin V / PI),[3]; [6],47.2%
same,third quadrant (annexin V / PI),[3]; [6],13.1%
same,fourth quadrant (annexin V / PI),[3]; [7],11.5%
same,second quadrant (annexin V / PI),[3]; [7],15.5%
same,third quadrant (annexin V / PI),[3]; [7],10.2%
same,"first quadrant (stained by both annexin V and PI, complete death of the cancer cell)","[3]; normal condition, T cells from mice given 50 mpk BKM-120 orally once a day for 3 weeks, 10 T cells:1 LLC2, 24 hours",62.8%
same,GLUT1 expression level versus BYLT719 and TGX-211 inhibitors,GLUT1 [4]; cytotoxic T cells,higher GLUT1 expression levels
same,GLUT1 expression level versus BYLT719 and TGX-211 inhibitors,GLUT1 [4]; helper T cell,higher GLUT1 expression levels
